Assay results published in US8455194B2, “Diagnostic methods” (Isis Innovation Limited, priority 2008, dated 2013).
Where two headings read alike, the source gives them in different places.

What was measured:
SLCO1B1 rs4149056 SNP = details: summary estimate with interval in brackets; cited from earlier work
[1] = cited from earlier work
[2] = Asian subjects compared with a White (Caucasian) control group; cited from earlier work
LDL-cholesterol = experiment: Heart Protection Study (HPS): LDL-cholesterol reduction on 40 mg simvastatin daily; format: in vivo, human; details: 4-6 weeks of 40 mg simvastatin daily
Description: (§1) Using DNA extracted from 19,856 (97%) participants, the rs4149056 and rs2306283 SNPs in SLCO1B1 were successfully genotyped in 16,664 participants classified as Caucasian. Effects of these genotypes on myopathy risk and on LDL-cholesterol reduction were then assessed.
Among 16,664 genotyped participants in HPS,^22 the rs4149056 and rs2306283 variants were not associated with significant differences in pre-treatment LDL-cholesterol levels. […] These 17,000 genotyped participants without myopathy also provide an alternative control population for the SEARCH cases, yielding an odds ratio of 4.7 (3.5-6.4) per rs4149056 C allele and a stronger p-value of 3×10^−28.

[3] = Heart Protection Study (HPS): myopathy in participants allocated 40 mg simvastatin daily; format: in vivo, human
Description: as §1

[4] = for Cumulative percentage with myopathy / Estimated cumulative myopathy risk: 80 mg simvastatin daily; for Estimated cumulative myopathy risk: life-table analysis
Description: After randomisation, follow-up of participants was scheduled to occur at 2, 4, 8 and 12 months, and then at 6-monthly intervals. Information was sought about any possible myocardial infarction, hospitalisation for angina, stroke, vascular procedure, pulmonary embolus, cancer or other serious adverse experience. In addition, any new unexplained muscle pain or weakness was explicitly sought and recorded. A blood sample was taken at each follow-up visit for central laboratory assay of CK and ALT.
Standard 1d.f. (trend) and 2 d.f. […] Haploview v4.0 release candidate 2^25 was used to estimate linkage disequilibrium and plot association results for genotyped SNPs. Haplotype frequencies and associated risks were estimated using tools in the haplo.stats (v1.3.1) package^26 in R (v2.6.1)^27. Physical positions refer to NCBI build-36 of the human genome, and alleles are expressed in the forward strand of the reference human genome (NCBI build-36). Ensembl version 46 and NCBI dbSNP build 127 and published reports^11,28,29 were used to classify SNPs as synonymous or non-synonymous and to identify their location within introns or exons.

[5] = among 10,269 participants allocated 40 mg simvastatin daily, 5 years average follow-up
[6] = among 6031 participants allocated 80 mg simvastatin daily, average follow-up about 6 years
[7] = among 6033 participants allocated 20 mg simvastatin daily

## CC(C)n1c(/C=C/C(O)CC(O)CC(=O)O)c(-c2ccc(F)cc2)c2ccccc21 (stereo not drawn) [Fluvastatin (acid), Fluvastatin]
SLCO1B1 rs4149056 SNP
  % higher AUC per C allele among studies of this statin: 10 (−9, 34) %

## O=C(O)C[C@H](O)C[C@H](O)/C=C/c1c(C2CC2)nc2ccccc2c1-c1ccc(F)cc1 [Pitavastatin (acid), Pitavastatin]
SLCO1B1 rs4149056 SNP
  % higher AUC per C allele among studies of this statin: 37 (10, 71) %

## CC[C@H](C)C(=O)O[C@H]1C[C@H](O)C=C2C=C[C@H](C)[C@H](CC[C@@H](O)C[C@@H](O)CC(=O)O)[C@H]21 [Pravastatin (acid), Pravastatin]
SLCO1B1 rs4149056 SNP
  % higher AUC per C allele among studies of this statin: 35 (17, 56) %

## CC(C)c1nc(N(C)S(C)(=O)=O)nc(-c2ccc(F)cc2)c1/C=C/[C@@H](O)C[C@@H](O)CC(=O)O [Rosuvastatin (acid), Rosuvastatin]
SLCO1B1 rs4149056 SNP
  % higher AUC per C allele among studies of this statin: 31 (15, 42) %
[1]; rosuvastatin combined with cyclosporine
  Increase in AUC of rosuvastatin: 7-11 times
[2]
  Elevation in median exposure of rosuvastatin: ~2 fold

## CCC(C)(C)C(=O)O[C@H]1C[C@@H](C)C=C2C=C[C@H](C)[C@H](CC[C@@H](O)C[C@@H](O)CC(=O)O)[C@H]21 [Simvastatin acid]
SLCO1B1 rs4149056 SNP
  % higher AUC per C allele among studies of this statin: 61 (30, 100) %

## Cc1ccc(C)c(OCCCC(C)(C)C(=O)O)c1 [gemfibrozil]
[1]; gemfibrozil given concomitantly with several statins
  Increase in area under the statin elimination curve (AUC): 2-4 fold

## CCC(C)(C)C(=O)O[C@H]1C[C@@H](C)C=C2C=C[C@H](C)[C@H](CC[C@@H]3C[C@@H](O)CC(=O)O3)[C@H]21 [simvastatin]
LDL-cholesterol; 16,664 genotyped participants, SE 0.12
  Average reduction in LDL-cholesterol: 40.57%
LDL-cholesterol; both variants considered together, SE 0.18
  Larger LDL-cholesterol reduction per rs2306283 G allele: 0.62%
LDL-cholesterol; both variants considered together, SE 0.25
  Smaller LDL-cholesterol reduction per rs4149056 C allele: 1.28%
[3]; [5]
  Number of definite myopathy cases: 10
  Number of incipient myopathy cases: 14
  Number of myopathy cases (definite plus incipient): 24
[3]; participants taking their allocated 40 mg simvastatin daily
  Number of definite or incipient myopathy cases while taking statin: 23
[4]; all genotypes, Year 1
  Cumulative percentage with myopathy: 0.91%
[4]; all genotypes, Year 5
  Cumulative percentage with myopathy: 1.56%
[4]; rs4149056 CC homozygotes
  Estimated cumulative myopathy risk: 18%
[4]; rs4149056 CT genotype
  Estimated cumulative myopathy risk: about 3%
[4]; rs4149056 TT homozygotes
  Estimated cumulative myopathy risk: 0.6%
[4]; rs4149056 genotype CC, Year 1
  Cumulative percentage with myopathy: 15.25%
[4]; rs4149056 genotype CC, Year 5
  Cumulative percentage with myopathy: 18.55%
[4]; rs4149056 genotype CT, Year 1
  Cumulative percentage with myopathy: 1.38%
[4]; rs4149056 genotype CT, Year 5
  Cumulative percentage with myopathy: 2.83%
[4]; rs4149056 genotype TT, Year 1
  Cumulative percentage with myopathy: 0.34%
[4]; rs4149056 genotype TT, Year 5
  Cumulative percentage with myopathy: 0.63%
[4]; [6]
  Number of definite myopathy cases: 49
  Number of incipient myopathy cases: 49
[4]; [7]
  Number of definite myopathy cases: 2
  Number of incipient myopathy cases: 6
